Measurements: patent US10710994B2, “Oxadiazole transient receptor potential channel inhibitors” (Genentech, Inc., priority 2018, dated 2020)
Like-named read-outs stand apart in the source and are kept apart here.

Target: human TRPA1 channel (Homo sapiens (Human), UniProt O75762)
Assay: hTRPA1 CHO Ca2+ FLIPR Tetra assay: block of cinnamaldehyde induced calcium influx
Type: cell-based
Details: CHO cells expressing TRPA1, Hill coefficient fixed to 1.5
Experimental: CHO cells expressing TRPA1 were plated into 384-well plates, incubated overnight at 37° C., and loaded with BD calcium indicator dye for 1 hr at 37° C. followed by 15 minutes at room temperature. The assay buffer was Hank's Balanced Salt Solution (HBSS) containing 20 mM HEPES (pH readjusted to 7.4) along with 0.02% BSA.
Following dye load and plate cool down, compounds were added to the cells using FLIPR Tetra. Plates were then incubated with compounds for 10 minutes or 90 minutes at room temperature prior to adding agonist. Following this incubation, about an EC80 concentration of cinnamaldehyde […] was added to active the channels and block of cinnamaldehyde induced calcium influx was measured.
Fixing the Hill coefficient will generally reduce variability of the IC50 determination. The IC50 results were individually examined to make sure the MIN and MAX points were set correctly prior to validation of the results.

[1] = read-out: hTRPA1 IC50 10 min, 10 minutes incubation with compound before cinnamaldehyde (about EC80)
[2] = read-out: hTRPA1 IC50 90 min, 90 minutes incubation with compound before cinnamaldehyde (about EC80)
[3] = hTRPA1 IC50 10 min, 10 minutes incubation with compound before cinnamaldehyde (about EC80)
[4] = hTRPA1 IC50 90 min, 90 minutes incubation with compound before cinnamaldehyde (about EC80)

Sequence of human TRPA1 channel (O75762 whole entry): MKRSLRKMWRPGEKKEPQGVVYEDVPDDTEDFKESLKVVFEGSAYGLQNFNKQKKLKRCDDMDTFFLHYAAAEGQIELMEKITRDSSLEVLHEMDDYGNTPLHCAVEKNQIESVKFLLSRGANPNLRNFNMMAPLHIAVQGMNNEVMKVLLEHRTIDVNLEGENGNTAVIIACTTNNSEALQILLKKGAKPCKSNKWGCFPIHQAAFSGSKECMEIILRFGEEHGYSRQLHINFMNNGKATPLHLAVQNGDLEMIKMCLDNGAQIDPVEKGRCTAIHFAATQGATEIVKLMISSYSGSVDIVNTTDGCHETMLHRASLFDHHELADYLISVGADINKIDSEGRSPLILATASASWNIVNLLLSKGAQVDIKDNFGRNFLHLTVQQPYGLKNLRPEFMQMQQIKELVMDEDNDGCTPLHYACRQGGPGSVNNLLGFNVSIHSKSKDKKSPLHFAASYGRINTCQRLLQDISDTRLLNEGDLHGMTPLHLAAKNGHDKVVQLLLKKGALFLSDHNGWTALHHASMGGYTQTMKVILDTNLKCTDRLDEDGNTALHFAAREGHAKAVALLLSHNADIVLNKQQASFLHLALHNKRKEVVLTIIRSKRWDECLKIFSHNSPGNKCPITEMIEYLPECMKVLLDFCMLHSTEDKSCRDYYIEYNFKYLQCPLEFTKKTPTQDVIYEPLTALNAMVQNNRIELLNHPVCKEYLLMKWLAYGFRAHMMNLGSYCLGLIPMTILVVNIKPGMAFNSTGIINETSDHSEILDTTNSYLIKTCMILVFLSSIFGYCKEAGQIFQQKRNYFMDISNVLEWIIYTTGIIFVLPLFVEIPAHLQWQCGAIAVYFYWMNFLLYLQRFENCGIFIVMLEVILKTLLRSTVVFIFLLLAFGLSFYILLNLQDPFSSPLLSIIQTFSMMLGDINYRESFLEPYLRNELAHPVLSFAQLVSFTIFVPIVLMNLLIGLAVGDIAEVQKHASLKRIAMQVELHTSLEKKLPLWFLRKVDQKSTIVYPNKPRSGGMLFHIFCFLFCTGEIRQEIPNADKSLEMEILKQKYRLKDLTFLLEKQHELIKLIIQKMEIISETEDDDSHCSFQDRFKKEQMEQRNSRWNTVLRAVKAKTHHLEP

SMILES	IC50 [1] [nM]	IC50 [2] [nM]	IC50 [3] [nM]	IC50 [4] [nM]
Cn1cnc2cnn(Cc3nc([C@@H]4CO[C@@H](c5ccc(Cl)cc5)C4)no3)c(=O)c21 [Example 57, 5-((3-((3R,5R)-5-(4-chlorophenyl)tetrahydro-furan-3-yl)-1,2,4-oxadiazol-5-yl)methyl)-3-methyl-3,5-dihydro-4H-imidazo[4,5-d] pyridazin-4-one]	38.8	18		
Cc1cncc2ncn(Cc3nc([C@@H]4CO[C@@H](c5ccc(Cl)cc5)C4)no3)c(=O)c12 [Example 44, 3-((3-((3R,5R)-5-(4-chlorophenyl)tetrahydro-furan-3-yl)-1,2,4-oxadiazol-5-yl)methyl)-5-methylpyrido[3,4-d]pyrimidin-4(3H)-one]	3.2	1.3		
Cc1ccc(=O)n2ccn(Cc3nc([C@@H]4CO[C@@H](c5ccc(Cl)cc5)C4)no3)c(=O)c12 [Example 49, 2-((3-((3R,5R)-5-(4-chlorophenyl)tetrahydro-furan-3-yl)-1,2,4-oxadiazol-5-yl)methyl)-9-methyl-2H-pyrido[1,2-a]pyrazine-1,6-dione]		4.3		
Cn1c(=O)[nH]c2ncn(Cc3nc([C@@H]4CO[C@@H](c5ccc(Cl)cc5)C4)no3)c(=O)c21 [Example 9, 1-((3-((3R, 5R)-5-(4-chlorophenyl)-tetrahydrofuran-3-yl)-1,2,4-oxadiazol-5-yl)methyl)-7-methyl-1H-purine-6,8(7H,9H)-dione]	40.4	11		
Cc1nc2ncn(C)c2c(=O)n1Cc1nc([C@@H]2CO[C@@H](c3ccc(Cl)cc3)C2)no1 [Example 8, 1-((3-((3R,5R)-5-(4-chlorophenyl)tetrahydrofuran-3-yl)-1,2,4-oxadiazol-5-yl)methyl)-2,7-dimethyl-1H-purin-6(7H)-one]		4.1	9.38	
Cc1cnn2ncn(Cc3nc([C@@H]4CO[C@@H](c5ccc(F)cc5)C4)no3)c(=O)c12 [Example 66, 3-((3-((3R,5R)-5-(4-fluorophenyl)tetrahydro-furan-3-yl)-1,2,4-oxadiazol-5-yl)methyl)-5-methylpyrazolo[5,1-f] [1,2,4]triazin-4(3H)-one]	8.47	1.6		
Cn1cnc2ncn(Cc3nc([C@@H]4CO[C@@H](c5cc(F)cc(F)c5)C4)no3)c(=O)c21 [Example 34, 1-((3-((3R,5R)-5-(3,5-difluorophenyl)tetra-hydrofuran-3-yl)-1,2,4-oxadiazol-5-yl)methyl)-7-methyl-1,7-dihydro-6H-purin-6-one]	63.5	28		
Cn1cnc2ncn(Cc3nc([C@@H]4CO[C@@H](c5ccccc5Cl)C4)no3)c(=O)c21 [Example 14, 1-((3-((3R,5R)-5-(2-chlorophenyl)tetra-hydrofuran-3-yl)-1,2,4-oxadiazol-5-yl)methyl)-7-methyl-1,7-dihydro-6H-purin-6-one]	335	160		
Nc1nc2ncccc2c(=O)n1Cc1nc([C@@H]2CO[C@@H](c3ccc(Cl)cc3)C2)no1 [Example 62, 2-amino-3-((3-((3R,5R)-5-(4-chlorophenyl)tetrahydrofuran-3-yl)-1,2,4-oxadiazol-5-yl)methyl)pyrido[2,3-d] pyrimidin-4(3H)-one]	8.29	2.7		
Cn1cnc2nc(N)n(Cc3nc([C@@H]4CO[C@@H](c5ccc(F)cc5)C4)no3)c2c1=O (racemic) [Example 157, 8-amino-1-methyl-7-[[3-[rac-(3R,5R)-5-(4-fluorophenyl)tetrahydro-furan-3-yl]-1,2,4-oxadiazol-5-yl]methyl]purin-6-one]			470	87

Continued, values first:

IC50 [1] [nM]	IC50 [2] [nM]	IC50 [3] [nM]	IC50 [4] [nM]	SMILES
6.76	1.9			Cn1cnc2ccn(Cc3nc([C@@H]4CO[C@@H](c5ccc(F)cc5)C4)no3)c(=O)c21 [Example 56, 5-((3-((3R,5R)-5-(4-fluorophenyl)tetrahydro-furan-3-yl)-1,2,4-oxadiazol-5-yl)methyl)-3-methyl-3,5-dihydro-4H-imidazo[4,5-c]pyridin-4-one]
9.28	46			Cc1c(N)nn2ncn(Cc3nc([C@@H]4CO[C@@H](c5ccc(F)cc5)C4)no3)c(=O)c12 [Example 145, 6-amino-3-((3-((3R,5R)-5-(4-fluorophenyl)tetrahydro-furan-3-yl)-1,2,4-oxadiazol-5-yl)methyl)-5-methylpyrazolo[5,1-f][1,2,4]triazin-4(3H)-one]
15.5	6			Cc1ncn2nc(N)n(Cc3nc([C@@H]4CO[C@@H](c5ccc(F)cc5)C4)no3)c(=O)c12 [Example 85, 2-amino-3-((3-((3R,5R)-5-(4-fluorophenyl)tetra-hydrofuran-3-yl)-1,2,4-oxadiazol-5-yl)methyl)-5-methylimidazo[5,1-f] [1,2,4]triazin-4(3H)-one]
7.2	6.7			Cc1ccnc2cnn(Cc3nc([C@@H]4CO[C@@H](c5ccc(F)cc5)C4)no3)c(=O)c12 [Example 104, 6-[[3-[(3R,5R)-5-(4-fluorophenyl)tetrahydro-furan-3-yl]-1,2,4-oxadiazol-5-yl]methyl]-4-methyl-pyrido[2,3-d] pyridazin-5-one]
313	23			Cn1cnc2[nH]c(=O)n(Cc3nc([C@@H]4CO[C@@H](c5ccc(Cl)cc5)C4)no3)c(=O)c21 [Example 7, 1-((3-((3R, 5R)-5-(4-chlorophenyl)-tetrahydrofuran-3-yl)-1,2,4-oxadiazol-5-yl)methyl)-7-methyl-1H-purine-2,6(3H,7H)-dione]
			13	Cc1nc(Cl)n2ncn(Cc3nc([C@@H]4CO[C@@H](c5ccc(Cl)cc5)C4)no3)c(=O)c12 (racemic) [Example 93, 7-chloro-5-methyl-3-[[3-[rac-(3R,5R)-5-(4-chlorophenyl)tetrahydro-furan-3-yl]-1,2,4-oxadiazol-5-yl]methyl] imidazo[5,1-f][1,2,4] triazin-4-one]
		0.8	0.3	Cc1nc(Br)n2ncn(Cc3nc([C@@H]4CO[C@@H](c5ccc(Cl)cc5)C4)no3)c(=O)c12 (racemic) [Example 107, 7-bromo-5-methyl-3-[[3-[rac-(3R,5R)-5-(4-chlorophenyl)tetrahydro-furan-3-yl]-1,2,4-oxadiazol-5-yl]methyl] imidazo[5,1-f][1,2,4] triazin-4-one]
46.4	29			Cn1cnc2ncn(Cc3nc([C@@H]4CO[C@@H](c5ccc(C(F)(F)F)cc5)C4)no3)c(=O)c21 [Example 38, 7-methyl-1-((3-((3R,5R)-5-(4-(trifluoromethyl)phenyl)tetrahydrofuran-3-yl)-1,2,4-oxadiazol-5-yl)methyl)-1,7-dihydro-6H-purin-6-one]
		38.9	23	Cn1cncc1C(=O)NCc1nc([C@H]2CO[C@H](c3ccc(Cl)cc3)C2)no1 (racemic) [Example 102, 3-methyl-N-[[3-[rac-(3S,5S)-5-(4-chlorophenyl)tetrahydro-furan-3-yl]-1,2,4-oxadiazol-5-yl]methyl]imidazole-4-carboxamide]
		5.73	1.4	Nc1nc2ncsc2c(=O)n1Cc1nc([C@@H]2CO[C@@H](c3ccc(Cl)cc3)C2)no1 (racemic) [Example 158, 5-amino-6-[[3-[rac-(3R,5R)-5-(4-chlorophenyl)tetrahydro-furan-3-yl]-1,2,4-oxadiazol-5-yl]methyl]thiazolo[4,5-d]pyrimidin-7-one]
